# According to ChEMBL document CHEMBL1201862, “PubChem BioAssay data set” (2004):
# Active and inactive are the calls of the source.
# Columns and labels:
# [1] = molecular target: T1, Voltage-gated N-type calcium channel alpha-1B subunit/Amyloid beta A4 precursor protein-binding family A member 1 (Homo sapiens, UniProt Q00975+Q02410); assay: disruptors of Mint-PDZ/N-type channel peptide interaction – biochemical, HTRF, SAR follow-up (AID 2489); format: functional
# [2] = molecular target: T1, Voltage-gated N-type calcium channel alpha-1B subunit/Amyloid beta A4 precursor protein-binding family A member 1; assay: disruptors of Mint-PDZ/N-type channel peptide interaction – biochemical, HTRF, set 2, SAR follow-up (AID 434980); format: functional
# SUMO E1/E2 = SUMO E1/E2 (Homo sapiens, UniProt P63279+Q9UBE0+Q9UBT2); assay: SAR analysis of SUMOylation using HTRF in an in-Vitro dose response assay. [Related pubchem assays (depositor defined):AID2006, AID2011, AID2018, AID2069, AID2658]; format: functional
# Bcl-2-related protein A1 = molecular target: T2, Bcl-2-related protein A1 (Mus musculus, UniProt Q07440); format: functional;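 note: confirmatory dose–response counterscreen on Bfl-1, used to check hits from a UBC13 polyubiquitin inhibitor campaign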
# T2 sequence (Q07440 whole entry): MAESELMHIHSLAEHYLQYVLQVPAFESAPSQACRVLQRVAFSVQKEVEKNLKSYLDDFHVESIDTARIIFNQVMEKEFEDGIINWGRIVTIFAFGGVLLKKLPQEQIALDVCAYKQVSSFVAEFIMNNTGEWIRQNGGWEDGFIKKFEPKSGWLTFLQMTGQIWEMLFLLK
# [3] = molecular target: T3, Ubiquitin-conjugating enzyme E2 N (Homo sapiens, UniProt P61088); format: functional
# T3 sequence (P61088 whole entry): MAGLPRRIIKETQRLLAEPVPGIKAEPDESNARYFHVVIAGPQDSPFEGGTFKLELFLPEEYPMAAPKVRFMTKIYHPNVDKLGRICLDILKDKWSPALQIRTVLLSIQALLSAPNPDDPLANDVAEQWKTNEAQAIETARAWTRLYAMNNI
# [4] = molecular target: T3, Ubiquitin-conjugating enzyme E2 N; format: functional; remark: listed apart in the source
# [5] = molecular target: DNA damage-inducible transcript 3 protein (Mus musculus, UniProt P35639); format: functional, Cricetulus griseus
# Chain of DNA damage-inducible transcript 3 protein (P35639 whole entry): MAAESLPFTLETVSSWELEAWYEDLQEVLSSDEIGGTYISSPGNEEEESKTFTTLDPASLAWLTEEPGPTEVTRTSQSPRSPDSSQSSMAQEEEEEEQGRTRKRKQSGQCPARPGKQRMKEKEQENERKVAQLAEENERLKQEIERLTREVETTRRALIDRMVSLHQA
# INS1 = assay: INS-1E survival protection against cytokine death – cell-based, luminescence, retest, dose response (AID 449756); format: functional; settings: Rattus norvegicus;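 note: cell death triggered by IL-1 beta plus TNF-alpha plus IFN-gamma mixture; protective hits raise ATP signal compared with cytokine alone wells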
# [6] = Luminescence Cell-Based Dose Retest to Confirm Inhibitors of Cancer Stem Cells. [Related pubchem assays (depositor defined):AID2717, AID2721]; format: functional; settings: Homo sapiens
# Cytochrome P450 2D6 = Cytochrome P450 2D6 (Homo sapiens, UniProt P10635);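 note: CYP2D6 member of a cytochrome P450 panel assay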
# Chain of Cytochrome P450 2D6 (P10635 whole entry): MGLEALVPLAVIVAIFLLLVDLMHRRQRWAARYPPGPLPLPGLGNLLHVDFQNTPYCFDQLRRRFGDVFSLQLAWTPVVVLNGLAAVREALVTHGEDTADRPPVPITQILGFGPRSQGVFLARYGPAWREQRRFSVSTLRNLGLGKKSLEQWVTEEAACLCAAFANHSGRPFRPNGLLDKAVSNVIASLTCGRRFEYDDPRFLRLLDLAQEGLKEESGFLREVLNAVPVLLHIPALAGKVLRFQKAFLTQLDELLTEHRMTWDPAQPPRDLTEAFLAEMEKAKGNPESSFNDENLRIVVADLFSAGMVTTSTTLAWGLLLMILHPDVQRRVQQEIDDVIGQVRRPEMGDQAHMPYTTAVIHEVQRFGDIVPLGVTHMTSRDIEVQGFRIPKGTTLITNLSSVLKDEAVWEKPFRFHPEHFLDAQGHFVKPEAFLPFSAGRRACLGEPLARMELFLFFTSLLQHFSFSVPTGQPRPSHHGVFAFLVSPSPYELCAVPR
# [7] = molecular target: Lysine-specific demethylase 4C (Homo sapiens, UniProt Q9H3R0); assay: inhibition of JMJD2C H3K9me3 demethylation – biochemical, DELFIA europium, cherry-picked samples, dose response (AID 488835); format: functional
# [8] = molecular target: Sphingosine 1-phosphate receptor 1 (Homo sapiens, UniProt P21453); assay: Late stage counterscreen assay for S1P4 antagonists: Fluorescence dose response cell-based screening assay for antagonists of the Sphingosine 1-Phosphate Receptor 1 (S1P1). [Related pubchem assays (depositor defined):AID1510, AID1524, AID1692, AID1853, AID2332, AID489009, AID489017]; format: functional
# [9] = molecular target: Sphingosine 1-phosphate receptor 5 (Homo sapiens, UniProt Q9H228); assay: Late stage counterscreen assay for S1P4 antagonists: Fluorescence dose response cell-based screening assay for antagonists of the Sphingosine 1-Phosphate Receptor 5 (S1P5). [Related pubchem assays (depositor defined):AID1510, AID1524, AID1692, AID1853, AID2332, AID489009, AID489017]; format: functional
# [10] = molecular target: Sphingosine 1-phosphate receptor 2 (Homo sapiens, UniProt O95136); assay: Late stage counterscreen assay for S1P4 antagonists: Fluorescence dose response cell-based screening assay for antagonists of the Sphingosine 1-Phosphate Receptor 2 (S1P2). [Related pubchem assays (depositor defined):AID1510, AID1524, AID1692, AID1853, AID2332, AID489009, AID489017]; format: functional
# [11] = molecular target: Sphingosine 1-phosphate receptor 3 (Homo sapiens, UniProt Q99500); assay: Late stage counterscreen assay for S1P4 antagonists: Fluorescence dose response cell-based screening assay for antagonists of the Sphingosine 1-Phosphate Receptor 3 (S1P3). [Related pubchem assays (depositor defined):AID1510, AID1524, AID1692, AID1853, AID2332, AID489009, AID489017]; format: functional
# [12] = molecular target: Intestinal-type alkaline phosphatase (Mus musculus, UniProt P24822); assay: PubChem AID 488875; format: functional
# Chain of Intestinal-type alkaline phosphatase (Mus musculus, UniProt P24822) (P24822 whole entry): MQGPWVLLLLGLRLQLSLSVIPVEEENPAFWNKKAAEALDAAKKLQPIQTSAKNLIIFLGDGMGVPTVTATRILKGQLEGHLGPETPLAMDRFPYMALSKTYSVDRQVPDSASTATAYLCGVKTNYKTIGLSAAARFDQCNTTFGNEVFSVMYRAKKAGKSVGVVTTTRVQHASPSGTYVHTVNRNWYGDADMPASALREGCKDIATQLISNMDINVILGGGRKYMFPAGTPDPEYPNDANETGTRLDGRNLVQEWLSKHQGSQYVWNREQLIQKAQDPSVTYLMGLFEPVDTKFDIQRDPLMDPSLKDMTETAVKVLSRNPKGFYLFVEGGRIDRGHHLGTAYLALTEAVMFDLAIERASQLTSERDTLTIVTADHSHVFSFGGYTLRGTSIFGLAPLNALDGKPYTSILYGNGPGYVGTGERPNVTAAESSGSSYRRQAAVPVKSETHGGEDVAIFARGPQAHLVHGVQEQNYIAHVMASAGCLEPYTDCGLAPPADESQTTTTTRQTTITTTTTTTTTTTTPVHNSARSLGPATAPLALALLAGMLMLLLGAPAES
# [13] = molecular target: T4, Alkaline phosphatase, tissue-nonspecific isozyme (Homo sapiens, UniProt P05186); assay: activation of tissue-nonspecific alkaline phosphatase – biochemical, TNAP isozyme, human IAP uHTS hits, selectivity assay for human IAP activator project, dose response (AID 488886); format: functional;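 note: potency of compounds raising TNAP activity as a selectivity check on IAP activators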
# T4 sequence (P05186 whole entry): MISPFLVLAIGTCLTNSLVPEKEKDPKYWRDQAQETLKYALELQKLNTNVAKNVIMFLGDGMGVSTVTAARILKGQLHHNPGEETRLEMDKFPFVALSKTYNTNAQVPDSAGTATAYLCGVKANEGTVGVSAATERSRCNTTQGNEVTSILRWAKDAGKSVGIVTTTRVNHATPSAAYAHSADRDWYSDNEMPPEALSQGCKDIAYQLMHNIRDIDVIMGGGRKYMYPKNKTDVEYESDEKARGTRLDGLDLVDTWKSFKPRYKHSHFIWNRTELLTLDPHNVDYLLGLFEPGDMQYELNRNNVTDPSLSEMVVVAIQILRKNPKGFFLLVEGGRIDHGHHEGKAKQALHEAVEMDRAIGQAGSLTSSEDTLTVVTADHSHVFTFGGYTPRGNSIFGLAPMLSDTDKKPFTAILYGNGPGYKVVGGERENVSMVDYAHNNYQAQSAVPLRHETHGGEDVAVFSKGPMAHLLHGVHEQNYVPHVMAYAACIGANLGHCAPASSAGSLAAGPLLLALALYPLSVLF
# [14] = molecular target: T5, Intestinal-type alkaline phosphatase (Homo sapiens, UniProt P09923); assay: activation of human intestinal alkaline phosphatase – biochemical, luminescent, uHTS hits, set 2, dose response (AID 488817); format: functional;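 note: potency of activators that raise enzyme activity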
# T5 sequence (P09923 whole entry): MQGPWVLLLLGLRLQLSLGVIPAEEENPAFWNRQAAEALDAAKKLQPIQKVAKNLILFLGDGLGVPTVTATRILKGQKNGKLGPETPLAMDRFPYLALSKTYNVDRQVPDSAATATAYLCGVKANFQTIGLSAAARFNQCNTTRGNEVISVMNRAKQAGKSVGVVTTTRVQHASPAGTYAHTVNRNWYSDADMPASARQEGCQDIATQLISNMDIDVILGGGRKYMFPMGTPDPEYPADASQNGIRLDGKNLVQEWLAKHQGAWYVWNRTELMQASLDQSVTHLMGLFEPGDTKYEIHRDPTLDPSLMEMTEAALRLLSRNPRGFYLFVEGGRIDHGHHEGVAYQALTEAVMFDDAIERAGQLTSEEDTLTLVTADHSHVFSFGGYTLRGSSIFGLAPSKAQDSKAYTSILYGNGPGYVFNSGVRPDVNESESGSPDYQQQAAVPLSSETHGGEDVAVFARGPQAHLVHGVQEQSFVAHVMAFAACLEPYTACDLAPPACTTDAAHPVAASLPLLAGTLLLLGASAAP
# [15] = molecular target: T5, Intestinal-type alkaline phosphatase; assay: human intestinal alkaline phosphatase activators, dose response, biochemical, luminescence, uHTS hits (AID 463120); format: functional
# Cytochrome P450 2C9 = Cytochrome P450 2C9 (Homo sapiens, UniProt P11712)
# HEK293 [16] = assay: cells; settings: Homo sapiens
# Paired box protein Pax-8 = Paired box protein Pax-8 (Homo sapiens, UniProt Q06710); assay: PAX8 transcriptional activity inhibition in RMG-I – RMG-I cells, luciferase, cherry-pick, dose response (AID 687027); format: functional, cell-based;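 note: luciferase reporter driven by Pax8 target thyroperoxidase promoter measured by SteadyGlo luminescence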
# HEK293 [17] = assay: cells; settings: Homo sapiens; remark: listed apart in the source
# T1 sequence (Q00975 whole entry): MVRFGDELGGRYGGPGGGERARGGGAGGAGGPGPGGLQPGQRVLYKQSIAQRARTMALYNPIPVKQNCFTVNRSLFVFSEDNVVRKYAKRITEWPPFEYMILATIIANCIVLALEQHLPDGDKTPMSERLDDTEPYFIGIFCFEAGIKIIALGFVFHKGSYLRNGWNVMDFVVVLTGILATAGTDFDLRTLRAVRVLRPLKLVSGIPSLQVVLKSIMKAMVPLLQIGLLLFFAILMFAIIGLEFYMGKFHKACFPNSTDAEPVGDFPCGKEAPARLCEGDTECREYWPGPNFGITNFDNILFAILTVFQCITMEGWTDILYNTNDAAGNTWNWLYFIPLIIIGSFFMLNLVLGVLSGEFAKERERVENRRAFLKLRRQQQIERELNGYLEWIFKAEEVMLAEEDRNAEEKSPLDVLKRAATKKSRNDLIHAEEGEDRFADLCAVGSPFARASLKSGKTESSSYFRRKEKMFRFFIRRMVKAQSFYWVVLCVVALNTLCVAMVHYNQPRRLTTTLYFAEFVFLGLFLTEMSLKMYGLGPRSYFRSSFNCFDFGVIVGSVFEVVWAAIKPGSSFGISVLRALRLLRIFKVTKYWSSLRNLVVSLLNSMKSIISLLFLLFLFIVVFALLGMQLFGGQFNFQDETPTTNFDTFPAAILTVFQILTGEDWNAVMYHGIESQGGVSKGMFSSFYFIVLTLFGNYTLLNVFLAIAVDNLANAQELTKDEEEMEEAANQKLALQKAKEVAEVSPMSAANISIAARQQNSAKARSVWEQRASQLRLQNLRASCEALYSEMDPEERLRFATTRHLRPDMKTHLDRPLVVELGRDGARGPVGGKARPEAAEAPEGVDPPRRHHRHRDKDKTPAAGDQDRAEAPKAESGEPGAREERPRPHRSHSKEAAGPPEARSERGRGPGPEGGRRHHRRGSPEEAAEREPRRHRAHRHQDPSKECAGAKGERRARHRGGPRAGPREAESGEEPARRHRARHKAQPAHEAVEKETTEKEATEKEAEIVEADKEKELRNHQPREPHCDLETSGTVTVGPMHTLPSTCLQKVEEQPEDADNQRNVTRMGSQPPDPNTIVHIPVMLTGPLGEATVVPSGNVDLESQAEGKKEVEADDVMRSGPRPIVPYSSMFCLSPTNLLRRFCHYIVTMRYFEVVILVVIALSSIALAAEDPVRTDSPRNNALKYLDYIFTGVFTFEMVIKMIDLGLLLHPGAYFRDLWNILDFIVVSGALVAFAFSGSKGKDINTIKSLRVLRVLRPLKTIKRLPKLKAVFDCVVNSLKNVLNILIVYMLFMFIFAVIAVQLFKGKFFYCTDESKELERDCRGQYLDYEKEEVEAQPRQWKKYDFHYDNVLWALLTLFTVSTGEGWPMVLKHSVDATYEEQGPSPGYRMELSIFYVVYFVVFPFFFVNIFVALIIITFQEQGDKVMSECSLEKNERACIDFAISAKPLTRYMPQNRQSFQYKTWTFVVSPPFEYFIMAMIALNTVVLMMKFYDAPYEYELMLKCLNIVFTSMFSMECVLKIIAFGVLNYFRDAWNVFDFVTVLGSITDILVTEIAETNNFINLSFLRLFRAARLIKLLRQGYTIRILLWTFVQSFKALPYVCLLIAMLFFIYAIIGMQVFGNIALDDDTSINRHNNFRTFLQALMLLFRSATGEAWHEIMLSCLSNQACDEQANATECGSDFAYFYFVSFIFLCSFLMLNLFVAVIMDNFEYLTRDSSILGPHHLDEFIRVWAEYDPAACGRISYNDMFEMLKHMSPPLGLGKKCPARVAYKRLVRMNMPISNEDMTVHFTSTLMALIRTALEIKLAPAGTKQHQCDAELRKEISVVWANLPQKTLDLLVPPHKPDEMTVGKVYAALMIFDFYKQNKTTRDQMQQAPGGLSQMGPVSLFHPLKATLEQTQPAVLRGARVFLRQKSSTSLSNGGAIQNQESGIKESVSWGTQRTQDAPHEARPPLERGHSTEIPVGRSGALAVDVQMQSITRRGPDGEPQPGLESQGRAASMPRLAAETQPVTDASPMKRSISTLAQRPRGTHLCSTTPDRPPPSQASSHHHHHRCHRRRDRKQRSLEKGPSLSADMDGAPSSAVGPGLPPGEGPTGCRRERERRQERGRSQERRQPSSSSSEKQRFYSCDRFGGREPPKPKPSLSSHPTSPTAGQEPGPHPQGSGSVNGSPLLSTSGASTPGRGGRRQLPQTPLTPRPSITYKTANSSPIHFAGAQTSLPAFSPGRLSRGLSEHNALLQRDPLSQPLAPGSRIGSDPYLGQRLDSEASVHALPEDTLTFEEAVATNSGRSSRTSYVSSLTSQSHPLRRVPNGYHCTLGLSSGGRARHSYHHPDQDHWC
# T1 sequence (Q02410 whole entry): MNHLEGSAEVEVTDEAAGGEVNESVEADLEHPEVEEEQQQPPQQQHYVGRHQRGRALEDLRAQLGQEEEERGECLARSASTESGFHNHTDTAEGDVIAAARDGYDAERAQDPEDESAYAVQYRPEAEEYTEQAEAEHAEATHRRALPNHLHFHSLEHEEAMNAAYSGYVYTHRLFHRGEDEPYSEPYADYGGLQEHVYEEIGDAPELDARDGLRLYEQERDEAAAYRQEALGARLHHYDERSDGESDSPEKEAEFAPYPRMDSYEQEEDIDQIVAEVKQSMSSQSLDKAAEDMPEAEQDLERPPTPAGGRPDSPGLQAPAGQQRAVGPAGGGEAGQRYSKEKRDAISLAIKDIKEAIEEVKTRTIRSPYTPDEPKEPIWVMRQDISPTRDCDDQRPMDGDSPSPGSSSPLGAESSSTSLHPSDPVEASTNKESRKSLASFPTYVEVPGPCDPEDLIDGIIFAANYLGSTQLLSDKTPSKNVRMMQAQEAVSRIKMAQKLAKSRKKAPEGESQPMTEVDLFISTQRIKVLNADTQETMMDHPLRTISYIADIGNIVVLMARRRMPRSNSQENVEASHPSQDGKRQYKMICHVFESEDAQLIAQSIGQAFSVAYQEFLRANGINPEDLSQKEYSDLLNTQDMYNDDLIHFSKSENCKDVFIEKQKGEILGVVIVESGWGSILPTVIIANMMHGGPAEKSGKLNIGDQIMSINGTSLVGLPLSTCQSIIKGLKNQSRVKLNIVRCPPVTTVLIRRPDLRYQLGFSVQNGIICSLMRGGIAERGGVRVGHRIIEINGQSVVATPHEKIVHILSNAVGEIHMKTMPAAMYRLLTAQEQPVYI
structure (smiles),measurement,setting,value
O=C(COC(=O)c1cc(-c2ccco2)nc2ccccc12)NCc1ccccc1,IC50,[1],> 56.8 µM (inactive)
same,IC50,[2],> 56.8 µM (inactive)
same,IC50,SUMO E1/E2,4.07 µM (active)
O=C(NCCCN1CCN(c2ccccc2)CC1)C1CCCN(c2ncnc3c2nc2n3CCCCC2)C1 (centres undefined),IC50,Bcl-2-related protein A1,> 20 µM (inactive)
same,IC50,[3],7.51 µM (active)
same,IC50,[4],7.05 µM (active)
COc1ccc(-c2nn(-c3ccccc3)cc2/C=N/N2C(=O)CSC2=S)cc1,Absolute IC50 (CHOP),[5],10 µM
same,AC50,INS1,4.38 µM (active)
same,AC50,[6],2.08 µM (active)
CC1CCN(C(=O)CSc2nc3cccnc3n2C)CC1,AC50,Cytochrome P450 2D6,inconclusive
CC(C)CN(C(=O)c1ccc(N2CCCC2=O)cc1)c1c(N)n(Cc2ccccc2)c(=O)[nH]c1=O,AC50,[7],> 60 µM (inactive)
CC(C)c1cccc(C(C)C)c1NC(=O)c1ccc(-c2cc(Cl)ccc2Cl)o1,IC50,[8],> 25 µM (inactive)
same,IC50,[9],12.7 µM (inactive)
same,IC50,[10],> 25 µM (inactive)
same,IC50,[11],> 25 µM (inactive)
Cn1c(/C(C#N)=C(\O)c2ccc(Br)s2)nc2ccccc21,EC50,[12],> 100 µM (inactive)
same,EC50,[13],45 µM (active)
same,EC50,[14],60 µM (active)
same,EC50,[15],77 µM (active)
Cn1c(SCC(=O)N/N=C/C=C\c2ccco2)nc2ccccc21,AC50,Cytochrome P450 2C9,inconclusive
same,AC50,Cytochrome P450 2D6,inconclusive
CCOC(=O)c1c(-c2ccc(F)cc2)csc1NC(=O)CN1C(=O)NC2(CCCCC2C)C1=O (centres undefined),EC50,HEK293 [16],> 59.6 µM (inactive)
same,AC50,Paired box protein Pax-8,4.11 µM (active)
same,EC50,HEK293 [17],> 59.6 µM (inactive)
